# Test results as given in US6872805B2 (Bristol-Myers Squibb Company, priority 2000, dated 2005).
# pIC50: −log10 of the molar value.
# Assays:
# [1] = In vivo rat PK studies (systemic and liver exposure); design: species or system male Sprague Dawley rats; details: dosed orally or intravenously
# Procedure: All animal experimentation was conducted in accordance with USDA guidelines under the Animal Welfare Act. To assess the systemic and liver exposure, representative compounds were orally (gastric intubation) or intravenously (bolus or infusion) administered to male Sprague Dawley rats bearing indwelling jugular vein cannulae. At pre-determined times after dosing, serial blood samples were taken from the implanted cannulae. Plasma was separated from EDTA-treated blood by centrifugation and stored at −20° C. until analysis. The liver was removed from rats after carbon dioxide asphyxiation, rinsed with saline and blotted dry. For analysis, a 2 g portion of the outer part of one lobe was minced and homogenized with 4 ml of 80% acetonitrile/HBSS buffer. After centrifugation, the supernatant was kept at −20° C. until analysis. Quantitation of represenatative compounds in plasma and liver homogenate samples was performed by a specific LC/MS/MS method optimized for each compound.
# [2] = molecular target: T1, NS3/4A J4L6S strain (Hepatitis C virus genotype 1b, UniProt O92972, C1454S/C1711G); assay: Recombinant HCV NS3/4A protease complex FRET peptide assay, J4L6S strain; assay type: biochemical, HCV genotype 1b
# T1 construct: DNA encoding the recombinant HCV NS3/4A protease complex (amino acid 1027 to 1711) for these strains; inferred from pET21b vector and Ni-NTA purification; made in house; host or cells: E. coli BL21 (DE3)
# Excerpt: (§1) The purpose of this in vitro assay was to measure the inhibition of HCV NS3 protease complexes, derived from the BMS, H77C or J416S strains, as described below, by compounds of the present invention. This assay provides an indication of how effective compounds of the present invention would be in inhibiting HCV […] proteolytic activity.
# (§2) Serum from an HCV-infected patient was obtained from Dr. T. Wright, San Francisco Hospital. An engineered full-length cDNA template of the HCV genome (BMS strain) was constructed from DNA fragments obtained by reverse transcription-PCR (RT-PCR) of serum RNA and using primers selected on the basis of homology between other genotype 1a strains. From the determination of the entire genome sequence, a genotype 1a was assigned to the HCV isolate according to the classification of Simmonds et al. (See P Simmonds, K A Rose, S Graham, S W Chan, F McOmish, B C Dow, E A Follett, P L Yap and H Marsden, J. Clin. Microbiol., 31(6), 1493-1503 (1993)). […] The infectious clones, H77C (1a genotype) and J4L6S (1b genotype) were obtained from R. Purcell (NIH) and the sequences are published in genebank (AAB67036, see Yanagi, M., Purcell, R. H., Emerson, S. U. and Bukh, J. Proc. Natl. Acad. Sci. U.S.A. 94(16),8738-8743 (1997); AF054247, see Yanagi, M., St Claire, M., Shapiro, M., Emerson, S. U., Purcell, R. H. and Bukh, J, Virology 244 (1), 161-172. (1998)). […]
# [3] = molecular target: T2, NS3/4A H77C strain (Hepatitis C virus genotype 1a, UniProt P27958, C1454S); assay: Recombinant HCV NS3/4A protease complex FRET peptide assay, H77C strain; assay type: biochemical, HCV genotype 1a
# T2 construct: DNA encoding the recombinant HCV NS3/4A protease complex (amino acid 1027 to 1711) for these strains; inferred from pET21b vector and Ni-NTA purification; made in house; host or cells: E. coli BL21 (DE3)
# Excerpt: as §1, §2
# T1 sequence (O92972 1027-1711 C1454S/C1711G): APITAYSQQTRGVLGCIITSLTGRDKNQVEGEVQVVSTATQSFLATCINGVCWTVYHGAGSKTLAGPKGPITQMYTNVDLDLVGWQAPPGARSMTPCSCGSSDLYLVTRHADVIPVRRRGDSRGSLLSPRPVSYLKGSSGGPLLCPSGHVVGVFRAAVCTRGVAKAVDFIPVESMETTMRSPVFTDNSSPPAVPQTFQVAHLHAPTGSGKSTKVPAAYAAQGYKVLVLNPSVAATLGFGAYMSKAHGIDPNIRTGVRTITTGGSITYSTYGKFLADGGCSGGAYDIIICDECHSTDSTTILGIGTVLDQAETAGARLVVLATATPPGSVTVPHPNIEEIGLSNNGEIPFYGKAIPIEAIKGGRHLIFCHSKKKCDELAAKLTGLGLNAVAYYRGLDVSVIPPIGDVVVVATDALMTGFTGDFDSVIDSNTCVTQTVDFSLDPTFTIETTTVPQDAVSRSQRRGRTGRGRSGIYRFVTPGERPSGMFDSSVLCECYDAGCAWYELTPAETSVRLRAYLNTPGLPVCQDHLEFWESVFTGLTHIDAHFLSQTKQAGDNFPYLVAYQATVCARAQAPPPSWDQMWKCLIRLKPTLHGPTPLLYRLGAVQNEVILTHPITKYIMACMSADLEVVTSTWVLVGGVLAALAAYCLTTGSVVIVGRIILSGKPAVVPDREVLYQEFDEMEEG
# T2 sequence (P27958 1027-1657 C1454S): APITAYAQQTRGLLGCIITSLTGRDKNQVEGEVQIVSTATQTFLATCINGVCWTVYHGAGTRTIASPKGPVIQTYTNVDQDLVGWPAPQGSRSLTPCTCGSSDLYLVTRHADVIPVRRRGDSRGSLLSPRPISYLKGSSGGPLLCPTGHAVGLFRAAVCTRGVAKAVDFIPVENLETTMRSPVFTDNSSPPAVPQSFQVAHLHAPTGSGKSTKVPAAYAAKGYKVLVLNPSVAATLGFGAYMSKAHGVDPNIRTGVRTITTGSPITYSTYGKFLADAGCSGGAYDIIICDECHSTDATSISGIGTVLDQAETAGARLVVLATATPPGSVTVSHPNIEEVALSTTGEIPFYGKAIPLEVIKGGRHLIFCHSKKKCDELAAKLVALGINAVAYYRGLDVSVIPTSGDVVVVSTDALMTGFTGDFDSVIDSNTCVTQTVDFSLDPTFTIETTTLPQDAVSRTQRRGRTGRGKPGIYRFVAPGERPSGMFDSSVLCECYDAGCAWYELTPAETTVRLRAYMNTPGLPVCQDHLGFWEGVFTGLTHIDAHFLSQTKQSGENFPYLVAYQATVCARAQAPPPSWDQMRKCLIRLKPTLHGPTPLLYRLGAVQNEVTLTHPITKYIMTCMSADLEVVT
# T2 sequence (P27958 1658-1711 partner, looked up, stated change not applied): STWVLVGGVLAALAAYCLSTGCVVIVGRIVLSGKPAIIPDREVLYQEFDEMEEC
compound,measurement,setting,value
C=CC1C[C@]1(NC(=O)[C@@H]1C[C@@H](Oc2cc(-c3ccccc3)nc3cc(OC)ccc23)CN1C(=O)C(NC(=O)OC(C)(C)C)C(C)(C)C)C(=O)NS(=O)(=O)c1ccc(NC(C)=O)cc1 (stereo partly drawn) [Compound 58],viral target exposure,[1],viral target exposure was achieved
same,pIC50,[2],8.10
same,pIC50,[3],8.00
